In paper PMC9719892, “Control of parallelized bioreactors II: probabilistic quantification of carboxylic acid reductase activity for bioprocess optimization” (Bioprocess and Biosystems Engineering, 2022):

Molecular target: T1, NoCAR (Nocardia otitidiscaviarum, UniProt A0A378YSF8)
T1 construct: gene lgrD_6; pETDuet, T7 promoter, co-expressed with E. coli pyrophosphatase (EcPPase, no chain) in E. coli K12 MG1655 RARE; whole cells; CAR class approx. 130 kDa
T1 sequence (A0A378YSF8 1-1156): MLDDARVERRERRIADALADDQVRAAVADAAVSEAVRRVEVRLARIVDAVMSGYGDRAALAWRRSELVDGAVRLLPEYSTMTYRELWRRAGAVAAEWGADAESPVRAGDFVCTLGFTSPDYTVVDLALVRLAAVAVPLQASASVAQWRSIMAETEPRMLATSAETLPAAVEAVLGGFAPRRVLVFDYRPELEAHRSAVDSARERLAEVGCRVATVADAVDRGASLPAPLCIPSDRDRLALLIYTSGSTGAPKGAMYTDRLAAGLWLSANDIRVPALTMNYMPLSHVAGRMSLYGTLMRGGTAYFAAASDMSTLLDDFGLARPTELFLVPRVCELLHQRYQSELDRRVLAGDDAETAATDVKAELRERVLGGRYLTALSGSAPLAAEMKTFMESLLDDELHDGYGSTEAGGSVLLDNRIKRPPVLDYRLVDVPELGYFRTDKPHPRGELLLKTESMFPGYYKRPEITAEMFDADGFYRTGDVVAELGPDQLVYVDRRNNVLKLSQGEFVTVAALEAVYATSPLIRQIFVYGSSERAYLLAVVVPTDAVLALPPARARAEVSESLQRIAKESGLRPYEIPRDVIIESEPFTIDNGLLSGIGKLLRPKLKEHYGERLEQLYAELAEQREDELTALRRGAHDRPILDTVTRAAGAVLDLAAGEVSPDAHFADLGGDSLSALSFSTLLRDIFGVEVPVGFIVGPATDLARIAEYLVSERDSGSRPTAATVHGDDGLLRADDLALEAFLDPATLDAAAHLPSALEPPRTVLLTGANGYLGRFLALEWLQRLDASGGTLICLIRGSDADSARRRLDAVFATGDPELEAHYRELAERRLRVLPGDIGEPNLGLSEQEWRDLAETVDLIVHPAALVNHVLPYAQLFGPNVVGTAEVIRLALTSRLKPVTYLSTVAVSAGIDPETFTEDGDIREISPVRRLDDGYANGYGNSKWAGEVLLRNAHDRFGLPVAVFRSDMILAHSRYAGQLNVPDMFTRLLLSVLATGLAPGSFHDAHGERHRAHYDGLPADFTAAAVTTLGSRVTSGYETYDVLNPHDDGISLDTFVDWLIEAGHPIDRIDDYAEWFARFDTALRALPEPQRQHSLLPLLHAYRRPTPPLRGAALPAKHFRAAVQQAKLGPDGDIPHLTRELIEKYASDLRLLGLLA
Assay: whole-cell biotransformation, ABAO assay of 3-hydroxybenzaldehyde at […] nm
Assay type: cell-based
Details: 2.5 mM substrate in PBS / minimal medium with glucose, growing E. coli cells, 35 °C; no added cofactor

O=C(O)c1cccc(O)c1 [3-hydroxybenzoic acid]
whole-cell biotransformation, ABAO assay of 3-hydroxybenzaldehyde at 360 nm: The biotransformation consists of the conversion of 3-hydroxybenzoic acid to 3-hydroxybenzaldehyde
